Values quoted from earlier work as cited in paper PMC11477967, “Review of the Structural Characteristics and Biological Activities of Tricholoma Secondary Metabolites (2018–2023)” (Molecules, 2024).
Converted amounts (≈) assume the structure as drawn. Where two headings read alike, the source gives them in different places. Each block holds one compound with its values, some of them ahead of it.

Legend:
human tumor cell lines = tested on: human tumor cell lines; parameters: method as in PMID 29758519, PMID 32534274, PMID 26186257; details: Table 1 summary
MCF-7 [1] = tested on: MCF-7
S. epidermidis [2] = tested on: S. epidermidis; parameters: method as in PMID 26186257
A-549 [3] = tested on: A-549
B. subtilis = tested on: B. subtilis; parameters: method as in PMID 26186257
E. coli [4] = tested on: E. coli; parameters: method as in PMID 26186257
Pseudomonas aeruginosa = tested on: Pseudomonas aeruginosa; parameters: method as in PMID 26186257
S. aureus [5] = tested on: S. aureus; parameters: method as in PMID 26186257
bacteria = tested on: bacteria; parameters: method as in PMID 32534274, PMID 26186257, PMID 34604687, PMID 28794307; details: Table 1 summary
[6] = parameters: method as in PMID 36480815; details: among 50-54
HeLa [7] = tested on: HeLa; parameters: method as in PMID 36480815; details: HeLa cell line
[8] = parameters: method as in PMID 36480815; details: Table 1 summary
human cancer cell lines = details: for Bioactivities: Cytotoxic against human cancer cell lines: Table 1 summary; for cytotoxicity rank: among 55, 56, 58, 60, 61, cell line not specified
PDF = tested on: PDF; parameters: method as in PMID 36480815; details: PDF cells
Caki-1 [9] = tested on: Caki-1; parameters: method as in doi:10.1177/1934578X1801300901
MCF-7 [10] = tested on: MCF-7; parameters: method as in PMID 37175274
A549 = tested on: A549; parameters: method as in doi:10.1177/1934578X1801300901; details: said to surpass shikonin
WISH = tested on: WISH; parameters: method as in doi:10.1177/1934578X1801300901
Hep G2 [11] = tested on: Hep G2; parameters: method as in doi:10.1177/1934578X1801300901; details: said to surpass shikonin
Caki-1 [12] = tested on: Caki-1; parameters: method as in PMID 37175274
A-549 [13] = tested on: A-549; parameters: method as in PMID 37175274
MCF-7 [14] = tested on: MCF-7; parameters: method as in doi:10.1177/1934578X1801300901
Hep G2 [15] = tested on: Hep G2; parameters: method as in PMID 37175274
MCF-7 [16] = tested on: MCF-7; parameters: method as in PMID 33449279; details: MCF-7 cells
caspase-9 = tested on: caspase-9; parameters: method as in PMID 33449279; details: compared to the control group
caspase-3 = tested on: caspase-3; parameters: method as in PMID 33449279; details: compared to the control group
HeLa [17] = tested on: HeLa; parameters: method as in PMID 33449279
[18] = parameters: method as in doi:10.1016/0040-4039(96)01329-9; details: solutions containing trace inorganic acids
S. aureus [19] = tested on: S. aureus; parameters: method as in PMID 28794307
Bacillus subtilis = tested on: Bacillus subtilis; parameters: method as in PMID 28794307
E. coli [20] = tested on: E. coli; parameters: method as in PMID 28794307
S. epidermidis [21] = tested on: S. epidermidis; parameters: method as in PMID 28794307

Compound: CC(C)C(C)C=CC(C)C1CCC2C(=CC(=O)OC3(C)CCC=CC3=O)C(=O)CCC21C (centres unmarked) [Compound 40, chaxine C]
- Bioactivities: Anti-cancer activity (human tumor cell lines): Anti-cancer activity
- selective cytotoxicity (MCF-7 [1]): selective toxicity
- antibacterial activity (S. epidermidis [2]): antibacterial activity
- IC50 (A-549 [3]): < 10 µM
- selective cytotoxicity (A-549 [3]): selective toxicity
- antibacterial activity (B. subtilis): more significant inhibitory effect
- antibacterial activity (E. coli [4]): antibacterial activity
- antibacterial activity (Pseudomonas aeruginosa): antibacterial activity
- antibacterial activity (S. aureus [5]): more significant inhibitory effect
- Bioactivities: Antibacterial activity (bacteria): Antibacterial activity

Compound: CC(C)C(C)/C=C/[C@@H](C)C1CCC2C3=C[C@H](O)[C@@]45C[C@@H](O)CC[C@]4(C)[C@]3(CC[C@@]21C)O5 (some centres unmarked) [Compound 50, anatoluin A]
- lipid peroxidation inhibitory activity (rank, words) [6]: most active
- cytotoxic activity (H1299): selectively inhibited
- IC50 (H1299; H1299 cell line): 34.3 ± 1.1 µg/mL (≈ 80 µM)
- cytotoxic activity (HT29): selectively inhibited
- cytotoxic activity (MCF7): selectively inhibited
- IC50 (HeLa [7]): 14.3 ± 1.7 µg/mL (≈ 33.4 µM)
- toxicity to normal or healthy cell lines (L929): almost no toxicity
- Bioactivities: Antioxidant activity [8]: Antioxidant activity

Compound: CC(C)C(C)/C=C/[C@@H](C)C1CCC2C3=C[C@@H](O)[C@@]45C[C@@H](O)CC[C@]4(C)[C@]3(CC[C@@]21C)O5 (some centres unmarked) [Compound 51, anatoluin B]
- cytotoxic activity (human cancer cell lines): good cytotoxic activity
- cytotoxic activity (H1299): selectively inhibited
- cytotoxic activity (MCF7): selectively inhibited
- toxicity to normal or healthy cell lines (L929): almost no toxicity
- Bioactivities: Antioxidant activity [8]: Antioxidant activity

Compound: CC(C)C(C)/C=C/C(C)C1CCC2C3=CC4OC45C[C@@H](O)CC[C@]5(C)C3CC[C@@]21C (stereo partly drawn) [Compound 52, 5α,6α-epoxy-ergosta-7,22-dien,3β-ol]
- cytotoxic activity (H1299): selectively inhibited
- cytotoxic activity (HT29): selectively inhibited
- cytotoxic activity (MCF7): selectively inhibited
- toxicity to normal or healthy cell lines (L929): almost no toxicity
- Bioactivities: Antioxidant activity [8]: Antioxidant activity

Compound: CC(C)C(C)C=CC(C)C1CCC2C1(C)CCC1C23C=CC2(CC(O)CCC12C)OO3 (centres unmarked) [Compound 53, ergosterol-endoperoxide]
- Bioactivities: Cytotoxic against human cancer cell lines (human cancer cell lines): Cytotoxic against human cancer cell lines
- cytotoxic activity (HT29; HT29): selectively inhibited
- IC50 (L929; L929 cells): 65.6 ± 2.2 µg/mL (≈ 153 µM)
- IC50 (PDF): 52.8 ± 0.5 µg/mL (≈ 123 µM)
- Bioactivities: Antioxidant activity [8]: Antioxidant activity

Compound: C=C1CCC(CCC2CCC3(OC2)OC2(O)CCC3(C)OC2(C)C)C(C)(C)C1CC=C1C(=O)OCC1O (centres unmarked) [Compound 56, saponaceolide A]
- Bioactivities: Cytotoxic against human cancer cell lines (human cancer cell lines): Cytotoxic against human cancer cell lines
- cytotoxicity rank (human cancer cell lines): most significant cytotoxicity
- antiproliferative effects (Caki-1 [9]): strong antiproliferative effects
- inhibitory effects (MCF-7 [10]): notable inhibitory effects
- antiproliferative effects (A549): strong antiproliferative effects
- antiproliferative effects (WISH): strong antiproliferative effects
- antiproliferative effects (Hep G2 [11]): strong antiproliferative effects
- inhibitory effects (Caki-1 [12]): notable inhibitory effects
- inhibitory effects (A-549 [13]): notable inhibitory effects
- antiproliferative effects (MCF-7 [14]): strong antiproliferative effects
- inhibitory effects (Hep G2 [15]): notable inhibitory effects

Compound: C=C1CCC(CC=C2CCC3(OC2)OC2(O)CCC3(C)OC2(C)C)C(C)(C)C1CC=C1C(=O)OCC1O (centres unmarked) [Compound 60, saponaceolide F]
- Bioactivities: Cytotoxic against human cancer cell lines (human cancer cell lines): Cytotoxic against human cancer cell lines
- cytotoxicity rank (human cancer cell lines): most significant cytotoxicity
- antiproliferative effects (Caki-1 [9]): strong antiproliferative effects
- inhibitory effects (MCF-7 [10]): notable inhibitory effects
- antiproliferative effects (A549): strong antiproliferative effects
- antiproliferative effects (WISH): strong antiproliferative effects
- antiproliferative effects (Hep G2 [11]): strong antiproliferative effects
- inhibitory effects (Caki-1 [12]): notable inhibitory effects
- inhibitory effects (A-549 [13]): notable inhibitory effects
- antiproliferative effects (MCF-7 [14]): strong antiproliferative effects
- inhibitory effects (Hep G2 [15]): notable inhibitory effects

Compound: C=C1CCC(CCC2CC=C(C3(C)CCC(=O)C(C)(C)O3)OC2)C(C)(C)C1CC=C1C(=O)OCC1O (centres unmarked) [Compound 63, tricholopardin C]
- Bioactivities: Cytotoxic against human cancer cell lines (human cancer cell lines): Cytotoxic against human cancer cell lines
- IC50 (MCF-7 [16]): 4.7 µM
- activation of caspase-9 (caspase-9): activation
- activation of caspase-3 (caspase-3): activation
- cytotoxicity (HeLa [17]): cytotoxicity

Compound: C=C1CCC(CCC2CC=C(C3(C)CCC(=O)C(C)(C)O3)OC2)C(C)(C)C1CC=C1CCOC1=O (centres unmarked) [Compound 64, tricholopardin D]
- Bioactivities: Cytotoxic against human cancer cell lines (human cancer cell lines): Cytotoxic against human cancer cell lines
- cytotoxicity (HeLa [17]): cytotoxicity

- stability [18]: easily decomposes
Compound: C=C(C#CC1=CC(OC(C)=O)CC(OC(=O)C(C)=CCCC(=C)C#CC2=CC(OC(C)=O)C3OC3C2=O)C1=O)CCC=C(C)C(=O)O (centres unmarked) [Compound 79, tricholomenyn C]

Compound: C=CC(O)CCCCC (centres unmarked) [Compound 93, 1-octen-3-ol]
- antibacterial activity (S. aureus [19]): strong antibacterial activity
- antibacterial activity (Bacillus subtilis): strong antibacterial activity
- antibacterial activity (E. coli [20]): strong antibacterial activity
- antibacterial activity (S. epidermidis [21]): strong antibacterial activity
- Bioactivities: Antibacterial activity (bacteria): Antibacterial activity
